Consider 1 compound from patent US12263153B2, “Pharmaceutical composition, methods for treating and uses thereof” (Boehringer Ingelheim International GmbH, priority 2016, dated 2025).

The conditions of data set [1]: human, in vivo; cited from earlier work.
Data set [2] is described as follows: blood pressure, heart rate and sympathetic activation under empagliflozin treatment. To be noted: treatment with empagliflozin. Format: in vivo. The text has this: It may be assumed that altered glucose and sodium gradients within the kidney may generate a sympathoinhibitory afferent renal nerve signal. The lack of sympathetic activation may contribute to a beneficial cardiovascular and renal profile of empagliflozin (cardiorenal axis). Based on clinical and non-clinical studies including mechanistic considerations, such as the effect of empagliflozin on human autonomic cardiovascular regulation, the use of empagliflozin in the treatment, prevention or slowing the progression of certain diseases and conditions or reducing the risk thereof, in particular chronic kidney disease and cardiovascular death in certain patients, is described hereinbefore and hereinafter.

For data set [3] the following is noted: patients with type 2 diabetes mellitus and high cardiovascular risk; cited from earlier work.

For `OC[C@H]1O[C@@H](c2ccc(Cl)c(Cc3ccc(O[C@H]4CCOC4)cc3)c2)[C@H](O)[C@@H](O)[C@@H]1O` [empagliflozin, 1-chloro-4-(β-D-glucopyranos-1-yl)-2-[4-((S)-tetrahydrofuran-3-yloxy)-benzyl]-benzene], in data set [1], the arterial stiffness result is recorded as “reduced arterial stiffness”, the direct vascular effects result is listed as “direct vascular effects” and the diuretic effect entry is reported as “shows a diuretic effect”. The heart rate entry in data set [2] is “without clinically relevant changes”. Moreover, in data set [3], the “risk of cardiovascular death” value is “reduced the risk” and the “risk of overall mortality” value is given as “reduced the risk”.
